From ChEMBL document CHEMBL5303766, “Data for DCP probe FHT-2344” (2022)
The source made the active and inactive calls. The rule behind the calls is not given here.

Tests used:
[1] = molecular target: SWI/SNF-related matrix-associated actin-dependent regulator of chromatin subfamily A member 4 (Homo sapiens, UniProt P51532); test: Luciferase reporter assay: SMARCA4 transcriptional activity in a SMARCA2-mutant cell line; format: functional
[2] = molecular target: T1, Bone morphogenetic protein receptor type-2 (Homo sapiens) (UniProt Q13873); test: BMPR2 SGC Tm panel (DSF); details: for ΔTm: Compound concentration 10.0 uM
T1 sequence (whole entry): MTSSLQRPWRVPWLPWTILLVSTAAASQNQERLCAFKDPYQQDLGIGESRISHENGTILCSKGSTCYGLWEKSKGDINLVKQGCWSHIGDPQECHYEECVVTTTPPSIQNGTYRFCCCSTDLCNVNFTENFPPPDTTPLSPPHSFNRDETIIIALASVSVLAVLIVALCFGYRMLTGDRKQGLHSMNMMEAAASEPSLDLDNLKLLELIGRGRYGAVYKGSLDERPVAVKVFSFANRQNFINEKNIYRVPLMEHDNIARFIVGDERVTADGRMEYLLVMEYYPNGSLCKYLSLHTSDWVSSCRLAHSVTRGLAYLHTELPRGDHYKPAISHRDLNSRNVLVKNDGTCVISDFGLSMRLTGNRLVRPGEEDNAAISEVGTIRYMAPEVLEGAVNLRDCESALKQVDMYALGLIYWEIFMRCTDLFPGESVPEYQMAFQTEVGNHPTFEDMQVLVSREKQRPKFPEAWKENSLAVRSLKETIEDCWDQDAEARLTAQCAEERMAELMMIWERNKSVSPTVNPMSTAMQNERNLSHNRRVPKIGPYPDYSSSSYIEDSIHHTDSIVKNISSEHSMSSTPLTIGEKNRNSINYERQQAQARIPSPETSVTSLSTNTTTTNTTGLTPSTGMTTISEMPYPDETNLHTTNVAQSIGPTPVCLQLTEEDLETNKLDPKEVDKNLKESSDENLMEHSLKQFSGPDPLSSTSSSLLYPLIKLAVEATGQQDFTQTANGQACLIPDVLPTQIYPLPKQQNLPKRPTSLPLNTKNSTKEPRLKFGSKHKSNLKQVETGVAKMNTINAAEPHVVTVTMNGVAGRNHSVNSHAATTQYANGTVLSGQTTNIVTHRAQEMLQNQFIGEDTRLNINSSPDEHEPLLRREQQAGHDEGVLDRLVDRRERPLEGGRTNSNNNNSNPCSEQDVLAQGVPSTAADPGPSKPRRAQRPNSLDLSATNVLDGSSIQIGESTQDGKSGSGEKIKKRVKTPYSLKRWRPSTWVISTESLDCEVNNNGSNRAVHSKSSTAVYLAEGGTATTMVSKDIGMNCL

[3] = molecular target: T2, Dual specificity protein kinase TTK (Homo sapiens) (UniProt P33981); test: TTK SGC Tm panel (DSF); details: for ΔTm: Compound concentration 10.0 uM
T2 sequence (whole entry): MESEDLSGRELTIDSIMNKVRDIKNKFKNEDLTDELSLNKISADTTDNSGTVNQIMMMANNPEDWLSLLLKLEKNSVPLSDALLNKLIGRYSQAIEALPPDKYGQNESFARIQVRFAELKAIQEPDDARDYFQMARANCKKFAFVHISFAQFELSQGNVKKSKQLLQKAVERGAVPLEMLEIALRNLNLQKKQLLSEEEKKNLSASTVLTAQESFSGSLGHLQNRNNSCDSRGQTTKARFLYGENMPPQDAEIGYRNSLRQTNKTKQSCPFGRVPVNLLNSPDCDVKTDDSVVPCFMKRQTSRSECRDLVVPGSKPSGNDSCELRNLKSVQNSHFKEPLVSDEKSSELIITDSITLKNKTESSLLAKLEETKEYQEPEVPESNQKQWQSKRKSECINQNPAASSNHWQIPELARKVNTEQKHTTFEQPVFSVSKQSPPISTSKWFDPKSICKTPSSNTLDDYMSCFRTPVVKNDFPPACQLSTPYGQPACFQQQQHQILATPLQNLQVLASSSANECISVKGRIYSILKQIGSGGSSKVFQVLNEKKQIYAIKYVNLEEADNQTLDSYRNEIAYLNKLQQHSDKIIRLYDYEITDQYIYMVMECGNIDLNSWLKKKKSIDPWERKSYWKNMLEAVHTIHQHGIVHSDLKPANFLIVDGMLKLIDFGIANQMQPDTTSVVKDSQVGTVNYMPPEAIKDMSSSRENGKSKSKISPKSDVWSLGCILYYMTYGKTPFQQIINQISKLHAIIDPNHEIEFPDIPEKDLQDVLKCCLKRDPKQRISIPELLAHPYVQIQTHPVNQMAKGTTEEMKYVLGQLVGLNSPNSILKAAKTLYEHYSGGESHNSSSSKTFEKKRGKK

[4] = molecular target: Membrane-associated tyrosine- and threonine-specific cdc2-inhibitory kinase (Homo sapiens) (UniProt Q99640); test: PKMYT1 SGC Tm panel (DSF); details: Compound concentration 10.0 uM
Chain of Membrane-associated tyrosine- and threonine-specific cdc2-inhibitory kinase (Homo sapiens) (Q99640 whole entry): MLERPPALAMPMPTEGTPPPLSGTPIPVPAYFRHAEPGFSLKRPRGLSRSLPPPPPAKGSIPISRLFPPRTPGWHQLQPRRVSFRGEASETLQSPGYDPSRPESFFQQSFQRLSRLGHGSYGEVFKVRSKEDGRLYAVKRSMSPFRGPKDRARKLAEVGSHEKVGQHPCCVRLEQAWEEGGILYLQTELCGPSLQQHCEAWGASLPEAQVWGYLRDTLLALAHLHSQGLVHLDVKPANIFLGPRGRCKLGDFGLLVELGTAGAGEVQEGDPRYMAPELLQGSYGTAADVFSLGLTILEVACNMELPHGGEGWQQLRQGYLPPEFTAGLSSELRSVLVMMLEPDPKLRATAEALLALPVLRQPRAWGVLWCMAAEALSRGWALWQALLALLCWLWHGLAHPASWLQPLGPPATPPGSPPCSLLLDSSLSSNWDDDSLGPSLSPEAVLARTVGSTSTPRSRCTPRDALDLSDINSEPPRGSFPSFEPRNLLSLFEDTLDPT

[5] = molecular target: T3, Aurora kinase A (Homo sapiens) (UniProt O14965); test: STK6 SGC Tm panel (DSF); details: for ΔTm: Compound concentration 10.0 uM
T3 sequence (whole entry): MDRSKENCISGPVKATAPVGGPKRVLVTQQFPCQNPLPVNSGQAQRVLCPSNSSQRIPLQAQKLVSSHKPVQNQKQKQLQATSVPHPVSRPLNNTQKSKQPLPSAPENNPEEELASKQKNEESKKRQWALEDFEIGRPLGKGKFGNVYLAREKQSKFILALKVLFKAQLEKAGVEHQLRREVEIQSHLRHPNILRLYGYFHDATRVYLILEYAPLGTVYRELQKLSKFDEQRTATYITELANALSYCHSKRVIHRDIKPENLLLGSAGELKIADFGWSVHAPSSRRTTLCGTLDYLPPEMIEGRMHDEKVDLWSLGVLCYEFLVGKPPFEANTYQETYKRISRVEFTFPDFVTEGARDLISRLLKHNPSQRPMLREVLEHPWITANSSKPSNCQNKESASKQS

[6] = molecular target: D(2) dopamine receptor (Homo sapiens) (UniProt P14416); details: Compound concentration 10.0 uM
Chain of D(2) dopamine receptor (Homo sapiens) (P14416 whole entry): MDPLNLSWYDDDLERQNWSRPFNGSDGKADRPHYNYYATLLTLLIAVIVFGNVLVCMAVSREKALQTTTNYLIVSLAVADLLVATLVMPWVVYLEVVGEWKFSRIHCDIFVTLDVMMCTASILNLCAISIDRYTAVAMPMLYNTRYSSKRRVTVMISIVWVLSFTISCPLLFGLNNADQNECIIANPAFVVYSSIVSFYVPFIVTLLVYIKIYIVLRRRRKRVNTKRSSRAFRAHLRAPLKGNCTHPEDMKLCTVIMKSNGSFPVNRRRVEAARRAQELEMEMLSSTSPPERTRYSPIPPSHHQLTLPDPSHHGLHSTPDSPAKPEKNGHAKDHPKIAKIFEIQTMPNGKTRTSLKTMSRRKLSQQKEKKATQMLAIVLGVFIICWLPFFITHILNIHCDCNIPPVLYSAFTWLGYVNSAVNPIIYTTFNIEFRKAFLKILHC

[7] = molecular target: Alpha-1D adrenergic receptor (Homo sapiens) (UniProt P25100); details: Compound concentration 10.0 uM
Chain of Alpha-1D adrenergic receptor (Homo sapiens) (P25100 whole entry): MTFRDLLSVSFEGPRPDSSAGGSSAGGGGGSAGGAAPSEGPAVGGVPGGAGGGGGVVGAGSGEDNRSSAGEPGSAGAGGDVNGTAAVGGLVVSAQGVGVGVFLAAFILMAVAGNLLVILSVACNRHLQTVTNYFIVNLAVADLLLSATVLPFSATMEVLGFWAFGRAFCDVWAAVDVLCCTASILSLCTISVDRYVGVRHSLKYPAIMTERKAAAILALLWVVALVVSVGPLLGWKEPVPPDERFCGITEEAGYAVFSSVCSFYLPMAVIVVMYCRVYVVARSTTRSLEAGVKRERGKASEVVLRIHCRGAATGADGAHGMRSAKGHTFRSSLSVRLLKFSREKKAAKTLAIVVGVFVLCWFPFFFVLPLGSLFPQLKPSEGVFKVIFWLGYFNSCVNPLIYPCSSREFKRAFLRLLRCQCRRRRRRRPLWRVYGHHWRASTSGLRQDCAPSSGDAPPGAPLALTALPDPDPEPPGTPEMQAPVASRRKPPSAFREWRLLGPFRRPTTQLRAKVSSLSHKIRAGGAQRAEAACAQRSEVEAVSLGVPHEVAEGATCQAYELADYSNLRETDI

Chain of SWI/SNF-related matrix-associated actin-dependent regulator of chromatin subfamily A member 4 (P51532 whole entry, looked up, stated change not applied): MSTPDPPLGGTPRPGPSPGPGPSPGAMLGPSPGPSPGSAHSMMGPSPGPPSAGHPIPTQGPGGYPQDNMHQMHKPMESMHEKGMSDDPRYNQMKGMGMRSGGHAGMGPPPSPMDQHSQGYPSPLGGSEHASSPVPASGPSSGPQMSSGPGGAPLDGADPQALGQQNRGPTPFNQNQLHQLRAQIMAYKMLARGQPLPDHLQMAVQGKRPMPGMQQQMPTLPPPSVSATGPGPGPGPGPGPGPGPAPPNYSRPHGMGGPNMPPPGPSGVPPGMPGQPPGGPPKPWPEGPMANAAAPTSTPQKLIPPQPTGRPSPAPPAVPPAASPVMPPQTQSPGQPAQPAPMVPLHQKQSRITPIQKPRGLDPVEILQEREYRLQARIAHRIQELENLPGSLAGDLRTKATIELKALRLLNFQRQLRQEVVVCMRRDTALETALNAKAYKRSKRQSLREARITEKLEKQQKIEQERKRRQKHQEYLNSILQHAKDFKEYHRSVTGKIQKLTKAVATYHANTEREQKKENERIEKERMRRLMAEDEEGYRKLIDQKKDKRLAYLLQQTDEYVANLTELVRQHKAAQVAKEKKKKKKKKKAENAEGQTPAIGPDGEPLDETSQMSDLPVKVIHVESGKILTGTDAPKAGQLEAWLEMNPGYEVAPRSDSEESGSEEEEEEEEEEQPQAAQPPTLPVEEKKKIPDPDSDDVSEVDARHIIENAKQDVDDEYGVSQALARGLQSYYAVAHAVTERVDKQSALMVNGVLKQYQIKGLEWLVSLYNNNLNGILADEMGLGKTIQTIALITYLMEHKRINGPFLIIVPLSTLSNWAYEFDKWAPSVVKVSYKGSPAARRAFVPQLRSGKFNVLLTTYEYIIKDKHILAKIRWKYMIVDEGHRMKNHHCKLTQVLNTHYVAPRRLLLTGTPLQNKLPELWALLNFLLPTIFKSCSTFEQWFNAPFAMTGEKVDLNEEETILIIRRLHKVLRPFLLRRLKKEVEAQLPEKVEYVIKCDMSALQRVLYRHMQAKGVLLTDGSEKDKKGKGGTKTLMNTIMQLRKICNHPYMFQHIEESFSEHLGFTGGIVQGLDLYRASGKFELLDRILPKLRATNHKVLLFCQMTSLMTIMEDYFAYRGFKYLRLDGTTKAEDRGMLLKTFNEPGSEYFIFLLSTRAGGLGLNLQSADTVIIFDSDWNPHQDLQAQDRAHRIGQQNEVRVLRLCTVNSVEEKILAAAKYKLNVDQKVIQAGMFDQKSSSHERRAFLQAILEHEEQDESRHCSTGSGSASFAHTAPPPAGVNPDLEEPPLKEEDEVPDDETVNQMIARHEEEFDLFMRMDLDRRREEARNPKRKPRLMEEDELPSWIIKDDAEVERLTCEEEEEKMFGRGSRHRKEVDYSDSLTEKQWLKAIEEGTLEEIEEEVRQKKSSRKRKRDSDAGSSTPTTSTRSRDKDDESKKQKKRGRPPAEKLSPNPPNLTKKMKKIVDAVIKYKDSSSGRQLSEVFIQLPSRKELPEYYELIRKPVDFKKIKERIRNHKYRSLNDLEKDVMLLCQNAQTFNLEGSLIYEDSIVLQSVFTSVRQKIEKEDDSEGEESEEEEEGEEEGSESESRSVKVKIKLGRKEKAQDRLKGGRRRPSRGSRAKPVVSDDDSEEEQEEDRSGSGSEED

IC50 [1]	delta Tm Staurosporine positive control [2]	ΔTm [2]	delta Tm Staurosporine positive control [3]	ΔTm [3]	ΔTm [4]	delta Tm Staurosporine positive control [5]	ΔTm [5]	inhibition [6] [%]	inhibition [7] [%]	Structure (SMILES)
0.0302 µM (active)	2.89	0.371	8.8	-1.35	-0.638	16.5	0.943	6.68	30.4	COC[C@H](NC(=O)c1ccn(S(C)(=O)=O)c1)C(=O)Nc1nc(-c2cccc(-c3ccn(C)n3)c2)cs1
2.37 µM (not active)	2.89	0.38	8.8	-0.371	-0.216	16.5	0.205	6.41	42	C[C@H](NC(=O)c1cn(C2(C#N)CC2)cn1)C(=O)Nc1nc(-c2cccc(-c3ccn(C)n3)c2)cs1
